Structures are written as SMILES.

Sequence of Methyl-coenzyme M reductase (MCR-I), Ni(I)-MCRred1 (P11558 2-550 limits assumed): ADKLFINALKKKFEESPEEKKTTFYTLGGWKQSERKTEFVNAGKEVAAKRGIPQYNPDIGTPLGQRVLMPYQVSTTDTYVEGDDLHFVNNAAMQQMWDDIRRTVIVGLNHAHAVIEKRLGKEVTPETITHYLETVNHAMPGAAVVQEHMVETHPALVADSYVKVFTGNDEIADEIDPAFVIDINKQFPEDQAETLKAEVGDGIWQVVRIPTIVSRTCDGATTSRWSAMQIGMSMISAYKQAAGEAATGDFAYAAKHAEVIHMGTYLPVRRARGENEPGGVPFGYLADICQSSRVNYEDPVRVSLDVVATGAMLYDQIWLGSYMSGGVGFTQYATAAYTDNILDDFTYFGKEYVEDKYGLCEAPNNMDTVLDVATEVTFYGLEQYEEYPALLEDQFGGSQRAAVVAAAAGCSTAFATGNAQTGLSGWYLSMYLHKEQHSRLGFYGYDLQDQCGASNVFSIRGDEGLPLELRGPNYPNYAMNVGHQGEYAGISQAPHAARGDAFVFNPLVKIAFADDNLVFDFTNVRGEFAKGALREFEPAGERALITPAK
Sequence of Methyl-coenzyme M reductase (MCR-I), Ni(I)-MCRred1 (P11560 2-443 limits assumed): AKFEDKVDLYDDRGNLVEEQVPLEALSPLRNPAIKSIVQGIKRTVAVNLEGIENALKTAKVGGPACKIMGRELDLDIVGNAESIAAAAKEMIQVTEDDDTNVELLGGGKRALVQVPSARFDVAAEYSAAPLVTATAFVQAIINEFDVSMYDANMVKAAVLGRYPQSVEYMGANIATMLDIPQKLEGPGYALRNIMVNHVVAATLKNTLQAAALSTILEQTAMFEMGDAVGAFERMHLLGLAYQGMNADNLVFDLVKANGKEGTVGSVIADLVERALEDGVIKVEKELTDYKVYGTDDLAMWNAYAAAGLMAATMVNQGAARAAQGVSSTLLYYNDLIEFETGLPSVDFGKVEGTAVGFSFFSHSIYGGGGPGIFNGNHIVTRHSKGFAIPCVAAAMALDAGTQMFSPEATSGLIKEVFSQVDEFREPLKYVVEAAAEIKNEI
Sequence of Methyl-coenzyme M reductase (MCR-I), Ni(I)-MCRred1 (P11562 2-249 limits assumed): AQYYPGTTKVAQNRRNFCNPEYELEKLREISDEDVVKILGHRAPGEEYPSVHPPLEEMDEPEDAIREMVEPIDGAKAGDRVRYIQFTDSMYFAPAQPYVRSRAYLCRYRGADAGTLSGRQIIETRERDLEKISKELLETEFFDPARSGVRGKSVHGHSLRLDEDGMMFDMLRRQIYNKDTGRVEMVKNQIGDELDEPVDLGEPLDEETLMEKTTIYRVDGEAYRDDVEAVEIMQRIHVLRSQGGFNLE

The experiment addresses Methyl-coenzyme M reductase (MCR-I), Ni(I)-MCRred1 (Methanothermobacter marburgensis, UniProt P11558+P11560+P11562). As to the kind of experiment: biochemical. Format: binding.
For `CCCCS(=O)(=O)O` [But-SO3], the affinity, expressed as Kd, was 3300 ± 600 µM.
`C[C@@H](OP(=O)(O)O)[C@H](NC(=O)CCCCCSSCCS(=O)(=O)O)C(=O)O` [CoMSSCoB6] gave a Kd of 105 ± 10.9 µM.
`C[C@@H](OP(=O)(O)O)[C@H](NC(=O)CCCCCCSSCCS(=O)(=O)O)C(=O)O` [CoMSSCoB] yielded a Kd of 57.4 ± 5.4 µM.
Turning to `CSCCS(=O)(=O)O` [methyl-SCoM, S-methyl-2-mercaptoethane sulfonate], the Kd stood at 27.5 ± 7.3 µM.

For orientation: Kd means the equilibrium constant for the complex coming apart. A high value points to a looser complex.

The values are drawn from doi:10.1101/2021.01.25.428124v1 (biorxiv, 2021).
